Test results published in publication PMC5218480 (PLoS ONE, 2017).

System: MV-4-11 cells
Experiment: Gene expression microarray analysis (Affymetrix PrimeView) and GSEA
Assay type: cell-based, human
Design: RFU PODN (11730768_x_at) / Fold change /veh PODN (11730768_x_at) / RFU LINC00158 (11744669_a_at) / Fold change /veh LINC00158 (11744669_a_at) / RFU DUSP10 (11751237_a_at) / Fold change /veh DUSP10 (11751237_a_at) / RFU ID3 (11757404_x_at) / Fold change /veh ID3 (11757404_x_at) / RFU PLEKHG5 (11737974_s_at) / Fold change /veh PLEKHG5 (11737974_s_at) / RFU LRRC4B (11730491_at) / Fold change /veh LRRC4B (11730491_at) / RFU GIMAP4 (11747438_a_at) / Fold change /veh GIMAP4 (11747438_a_at) / RFU KRT8 (11758183_x_at) / Fold change /veh KRT8 (11758183_x_at) / RFU CNN1 (11734310_a_at) / Fold change /veh CNN1 (11734310_a_at) / RFU VPS37D (11726825_at) / Fold change /veh VPS37D (11726825_at) / RFU C10orf10 (11716522_x_at) / Fold change /veh C10orf10 (11716522_x_at) / RFU KIR2DL2 /// KIR2DL4 /// KIR2DL5A /// KIR2DL5B /// KIR2DS1 /// KIR2DS2 /// KIR2DS3 /// KIR2DS4 /// KIR3DL3 /// KIR3DL3 /// KIR3DS1 (11738374_at) / Fold change /veh KIR2DL2 /// KIR2DL4 /// KIR2DL5A /// KIR2DL5B /// KIR2DS1 /// KIR2DS2 /// KIR2DS3 /// KIR2DS4 /// KIR3DL3 /// KIR3DL3 /// KIR3DS1 (11738374_at) / RFU C1QL1 (11718748_at) / Fold change /veh C1QL1 (11718748_at) / RFU TMPRSS4 (11747572_a_at) / Fold change /veh TMPRSS4 (11747572_a_at) / RFU HAMP (11756126_x_at) / Fold change /veh HAMP (11756126_x_at) / RFU RNFT2 (11725882_a_at) / Fold change /veh RNFT2 (11725882_a_at) / RFU NR4A2 (11747474_a_at) / Fold change /veh NR4A2 (11747474_a_at) / RFU ABCC12 (11746883_a_at) / Fold change /veh ABCC12 (11746883_a_at) / RFU TMEM136 (11760407_x_at) / Fold change /veh TMEM136 (11760407_x_at) / RFU CLDN22 /// WWC2 (11732394_at) / Fold change /veh CLDN22 /// WWC2 (11732394_at) / RFU HLA-DPB1 (11760878_x_at) / Fold change /veh HLA-DPB1 (11760878_x_at) / RFU SPINT1 (11716480_a_at) / Fold change /veh SPINT1 (11716480_a_at) / RFU GAP43 (11754022_s_at) / Fold change /veh GAP43 (11754022_s_at) / RFU A4GNT (11735810_at) / Fold change /veh A4GNT (11735810_at) / RFU PRB3 (11715151_x_at) / Fold change /veh PRB3 (11715151_x_at) / RFU TUBB4B (11761932_at) / Fold change /veh TUBB4B (11761932_at) / RFU CAPN14 (11732068_a_at) / Fold change /veh CAPN14 (11732068_a_at) / RFU TMCC2 (11721928_a_at) / Fold change /veh TMCC2 (11721928_a_at) / RFU IRGQ (11745062_a_at) / Fold change /veh IRGQ (11745062_a_at) / RFU FAM174B (11720279_a_at) / Fold change /veh FAM174B (11720279_a_at) / RFU TMPRSS4 (11748680_a_at) / Fold change /veh TMPRSS4 (11748680_a_at) / RFU FAM212B (11763350_a_at) / Fold change /veh FAM212B (11763350_a_at) / RFU PLEKHG5 (11743358_a_at) / Fold change /veh PLEKHG5 (11743358_a_at) / RFU ZSCAN30 (11745921_a_at) / Fold change /veh ZSCAN30 (11745921_a_at) / RFU CMKLR1 (11741424_a_at) / Fold change /veh CMKLR1 (11741424_a_at) / RFU LOC101060620 /// MAPK8IP1 (11723275_at) / Fold change /veh LOC101060620 /// MAPK8IP1 (11723275_at) / RFU SPTSSB (11747773_x_at) / Fold change /veh SPTSSB (11747773_x_at) / RFU PRSS12 (11739890_at) / Fold change /veh PRSS12 (11739890_at) / RFU BIN1 (11741810_x_at) / Fold change /veh BIN1 (11741810_x_at) / RFU WNT11 (11732464_a_at) / Fold change /veh WNT11 (11732464_a_at) / RFU C10orf10 (11716521_a_at) / Fold change /veh C10orf10 (11716521_a_at) / RFU C5orf56 (11738089_at) / Fold change /veh C5orf56 (11738089_at) / RFU CYB561 (11721691_x_at) / Fold change /veh CYB561 (11721691_x_at) / RFU ANKRD19P (11752326_a_at) / Fold change /veh ANKRD19P (11752326_a_at) / RFU OR2T12 /// OR2T33 /// OR2T8 (11738714_s_at) / Fold change /veh OR2T12 /// OR2T33 /// OR2T8 (11738714_s_at) / RFU VCAN (11748164_a_at) / Fold change /veh VCAN (11748164_a_at) / RFU JSRP1 (11732532_at) / Fold change /veh JSRP1 (11732532_at) / RFU KRTAP10-11 (11738290_x_at) / Fold change /veh KRTAP10-11 (11738290_x_at) / RFU MYO3A (11730013_a_at) / Fold change /veh MYO3A (11730013_a_at) / RFU EBF3 (11725865_a_at) / Fold change /veh EBF3 (11725865_a_at) / RFU CAMK2N1 (11719241_x_at) / Fold change /veh CAMK2N1 (11719241_x_at) / RFU C5orf56 (11738088_a_at) / Fold change /veh C5orf56 (11738088_a_at) / RFU OLFML3 (11715873_a_at) / Fold change /veh OLFML3 (11715873_a_at) / RFU LOC100653217 /// NTM (11731650_a_at) / Fold change /veh LOC100653217 /// NTM (11731650_a_at) / RFU MAPK11 (11762145_a_at) / Fold change /veh MAPK11 (11762145_a_at) / RFU FIZ1 (11724087_x_at) / Fold change /veh FIZ1 (11724087_x_at) / RFU OASL (11726364_x_at) / Fold change /veh OASL (11726364_x_at) / RFU SOX15 (11748057_x_at) / Fold change /veh SOX15 (11748057_x_at) / RFU CD79A (11719716_a_at) / Fold change /veh CD79A (11719716_a_at) / RFU HIST1H1D (11736915_at) / Fold change /veh HIST1H1D (11736915_at) / RFU CASKIN2 (11723855_a_at) / Fold change /veh CASKIN2 (11723855_a_at) / RFU LOC730098 (11760151_x_at) / Fold change /veh LOC730098 (11760151_x_at) / RFU OR4N2 (11742367_at) / Fold change /veh OR4N2 (11742367_at) / RFU PRRT2 (11749266_a_at) / Fold change /veh PRRT2 (11749266_a_at) / RFU SNX32 (11753110_a_at) / Fold change /veh SNX32 (11753110_a_at) / RFU CDHR5 (11726645_a_at) / Fold change /veh CDHR5 (11726645_a_at) / RFU RCAN1 (11760418_a_at) / Fold change /veh RCAN1 (11760418_a_at) / RFU FAM167A (11723789_a_at) / Fold change /veh FAM167A (11723789_a_at) / RFU FAM26E (11764081_at) / Fold change /veh FAM26E (11764081_at) / RFU ISYNA1 (11749810_s_at) / Fold change /veh ISYNA1 (11749810_s_at) / RFU ACY1 (11761880_at) / Fold change /veh ACY1 (11761880_at) / RFU 11764098_at / Fold change /veh 11764098_at / RFU SAMD14 (11745864_x_at) / Fold change /veh SAMD14 (11745864_x_at) / RFU NPB (11741838_a_at) / Fold change /veh NPB (11741838_a_at) / RFU TMPRSS6 (11731388_a_at) / Fold change /veh TMPRSS6 (11731388_a_at) / RFU KRTAP10-2 (11738614_at) / Fold change /veh KRTAP10-2 (11738614_at) / RFU ARHGAP8 /// PRR5-ARHGAP8 (11727945_x_at) / Fold change /veh ARHGAP8 /// PRR5-ARHGAP8 (11727945_x_at) / RFU KRTAP5-7 /// NADSYN1 (11734609_at) / Fold change /veh KRTAP5-7 /// NADSYN1 (11734609_at) / RFU RASL12 (11751679_a_at) / Fold change /veh RASL12 (11751679_a_at) / RFU CDKN2B (11736163_a_at) / Fold change /veh CDKN2B (11736163_a_at) / RFU PRF1 (11729649_at) / Fold change /veh PRF1 (11729649_at) / RFU, ZNF638 /// ZNF638-IT1 / Fold change vs veh, ZNF638 /// ZNF638-IT1 / RFU, PANK3 / Fold change vs veh, PANK3 / RFU, SH3YL1 / Fold change vs veh, SH3YL1 / RFU, ZEB2 / Fold change vs veh, ZEB2 / RFU, NRIP1 / Fold change vs veh, NRIP1 / RFU, PTTG1IP / Fold change vs veh, PTTG1IP / RFU, CAPN2 / Fold change vs veh, CAPN2 / RFU, MED14 / Fold change vs veh, MED14 / RFU, SNORA58 / Fold change vs veh, SNORA58 / RFU, C1orf63 / Fold change vs veh, C1orf63 / RFU, LRRFIP1 / Fold change vs veh, LRRFIP1 / RFU, NDUFAF7 / Fold change vs veh, NDUFAF7 / RFU, SLC12A2 / Fold change vs veh, SLC12A2 / RFU, IBTK / Fold change vs veh, IBTK / RFU, ESF1 / Fold change vs veh, ESF1 / Fold change vs veh, TMEM50B / RFU, TAOK1 / Fold change vs veh, TAOK1 / RFU, ACBD3 / Fold change vs veh, ACBD3 / RFU, TMA16 / Fold change vs veh, TMA16 / RFU, RWDD3 / Fold change vs veh, RWDD3 / RFU, BCAT1 / Fold change vs veh, BCAT1 / RFU, EDEM3 / Fold change vs veh, EDEM3 / RFU, TMEM33 / Fold change vs veh, TMEM33 / RFU, WDR75 / Fold change vs veh, WDR75 / RFU, AHCTF1 / Fold change vs veh, AHCTF1 / RFU, TFRC / Fold change vs veh, TFRC / RFU, ZDHHC17 / Fold change vs veh, ZDHHC17 / RFU, NOM1 / Fold change vs veh, NOM1 / RFU, ARL8B / Fold change vs veh, ARL8B / RFU, ZBTB11 / Fold change vs veh, ZBTB11 / RFU, TAMM41 / Fold change vs veh, TAMM41 / RFU, KIAA1704 /// LOC100996395 / Fold change vs veh, KIAA1704 /// LOC100996395 / RFU, ING1 / Fold change vs veh, ING1 / RFU, TRMT61B / Fold change vs veh, TRMT61B / RFU, FUBP3 / Fold change vs veh, FUBP3 / RFU, TP53 / Fold change vs veh, TP53 / RFU, TNKS2 / Fold change vs veh, TNKS2 / RFU, ZFP14 / Fold change vs veh, ZFP14 / RFU, ACTR2 / Fold change vs veh, ACTR2 / RFU, PPP3R1 / Fold change vs veh, PPP3R1 / RFU, PIK3R1 / Fold change vs veh, PIK3R1 / RFU, HNRNPA1 / Fold change vs veh, HNRNPA1 / RFU, RNF170 / Fold change vs veh, RNF170 / RFU, ZNF28 / Fold change vs veh, ZNF28 / RFU, RNGTT / Fold change vs veh, RNGTT / RFU, OGT / Fold change vs veh, OGT / RFU, BRD1 / Fold change vs veh, BRD1 / RFU, MARS / Fold change vs veh, MARS / RFU, ZNF655 / Fold change vs veh, ZNF655 / RFU, FAHD1 / Fold change vs veh, FAHD1 / RFU, BDP1 / Fold change vs veh, BDP1 / RFU, LRRCC1 / Fold change vs veh, LRRCC1 / RFU, ARID1A / Fold change vs veh, ARID1A / RFU, ZNF146 / Fold change vs veh, ZNF146 / RFU, ZNF330 / Fold change vs veh, ZNF330 / RFU, GPN3 / Fold change vs veh, GPN3 / RFU, C9orf123 / Fold change vs veh, C9orf123 / RFU, N4BP2L2 / Fold change vs veh, N4BP2L2 / RFU, ARFIP1 / Fold change vs veh, ARFIP1 / RFU, FAM179B / Fold change vs veh, FAM179B / RFU, BCL10 / Fold change vs veh, BCL10 / RFU, UHRF1BP1L / Fold change vs veh, UHRF1BP1L / RFU, BET1 / Fold change vs veh, BET1 / RFU, CNOT2 / Fold change vs veh, CNOT2 / RFU, ZNF268 / Fold change vs veh, ZNF268 / Fold change vs veh, ZNF507 / RFU, DGCR2 / Fold change vs veh, DGCR2 / RFU, WDSUB1 / Fold change vs veh, WDSUB1 / Fold change vs veh, HSP90B1 /// MIR3652 / RFU, ADSS / Fold change vs veh, ADSS / RFU, GK / Fold change vs veh, GK / RFU, ZNF148 / Fold change vs veh, ZNF148 / RFU, TAF9 / Fold change vs veh, TAF9 / RFU, SLC1A5 / Fold change vs veh, SLC1A5 / RFU, SLMO2 / Fold change vs veh, SLMO2 / RFU, ABCC4 / Fold change vs veh, ABCC4 / RFU, LOC101060439 /// RAP1B / Fold change vs veh, LOC101060439 /// RAP1B / RFU, RFX7 / Fold change vs veh, RFX7 / RFU, GTPBP10 / Fold change vs veh, GTPBP10 / RFU, CNEP1R1 / Fold change vs veh, CNEP1R1 / RFU, BIVM-ERCC5 /// ERCC5 / Fold change vs veh, BIVM-ERCC5 /// ERCC5 / RFU, ILF3 / Fold change vs veh, ILF3 / RFU 11762660_at / Fold change /veh 11762660_at / RFU VCAN (11757783_s_at) / Fold change /veh VCAN (11757783_s_at) / RFU DDX43 (11728927_at) / Fold change /veh DDX43 (11728927_at) / RFU KRT8 (11758188_x_at) / Fold change /veh KRT8 (11758188_x_at) / RFU NKD1 (11759106_at) / Fold change /veh NKD1 (11759106_at) / RFU SRD5A1 (11742802_a_at) / Fold change /veh SRD5A1 (11742802_a_at) / RFU TPSAB1 /// TPSB2 (11721975_s_at) / Fold change /veh TPSAB1 /// TPSB2 (11721975_s_at) / RFU GSTM3 (11746129_a_at) / Fold change /veh GSTM3 (11746129_a_at) / RFU IL23R (11737362_x_at) / Fold change /veh IL23R (11737362_x_at) / RFU TMEM51 (11727254_a_at) / Fold change /veh TMEM51 (11727254_a_at) / RFU PIWIL2 (11732686_x_at) / Fold change /veh PIWIL2 (11732686_x_at) / RFU ORM1 (11744905_x_at) / Fold change /veh ORM1 (11744905_x_at) / RFU CCDC152 (11743942_at) / Fold change /veh CCDC152 (11743942_at) / RFU ECM1 (11717891_a_at) / Fold change /veh ECM1 (11717891_a_at) / RFU IL23R (11748794_a_at) / Fold change /veh IL23R (11748794_a_at) / RFU TNFAIP8L3 (11732012_x_at) / Fold change /veh TNFAIP8L3 (11732012_x_at) / RFU MBOAT4 (11741988_at) / Fold change /veh MBOAT4 (11741988_at) / RFU 11764193_at / Fold change /veh 11764193_at / RFU TMEM53 (11763286_at) / Fold change /veh TMEM53 (11763286_at) / RFU MAGEB2 (11727129_at) / Fold change /veh MAGEB2 (11727129_at) / RFU TMEM200A (11744735_a_at) / Fold change /veh TMEM200A (11744735_a_at) / RFU CCDC152 (11751479_a_at) / Fold change /veh CCDC152 (11751479_a_at) / RFU FAM211A (11726209_a_at) / Fold change /veh FAM211A (11726209_a_at) / RFU RGS16 (11746705_a_at) / Fold change /veh RGS16 (11746705_a_at) / RFU VCAN (11755009_s_at) / Fold change /veh VCAN (11755009_s_at) / RFU RHOB (11743442_s_at) / Fold change /veh RHOB (11743442_s_at) / RFU RGS16 (11720943_a_at) / Fold change /veh RGS16 (11720943_a_at) / RFU RGS16 (11720944_at) / Fold change /veh RGS16 (11720944_at) / RFU, VPS4B / Fold change vs veh, VPS4B / RFU, CREB1 / Fold change vs veh, CREB1 / RFU, DNAJC13 / Fold change vs veh, DNAJC13 / RFU, GNAQ / Fold change vs veh, GNAQ / RFU, CDK5R1 / Fold change vs veh, CDK5R1 / RFU, ZRANB3 / Fold change vs veh, ZRANB3 / RFU, CUL4A / Fold change vs veh, CUL4A / RFU, CCNY / Fold change vs veh, CCNY / RFU, UFL1 / Fold change vs veh, UFL1 / RFU, COG3 / Fold change vs veh, COG3 / RFU, DIAPH2 / Fold change vs veh, DIAPH2 / RFU, SKA2 / Fold change vs veh, SKA2 / RFU, AFF3 / Fold change vs veh, AFF3 / RFU, LMF1 / Fold change vs veh, LMF1 / RFU, IPO11 / Fold change vs veh, IPO11 / RFU, DFFB / Fold change vs veh, DFFB / RFU, FOXP1 / Fold change vs veh, FOXP1 / RFU, CARD8 / Fold change vs veh, CARD8 / RFU, STRN3 / Fold change vs veh, STRN3 / RFU, ADK / Fold change vs veh, ADK / RFU, RASSF2 / Fold change vs veh, RASSF2 / RFU, WIPF1 / Fold change vs veh, WIPF1 / RFU, LARP1B / Fold change vs veh, LARP1B / RFU, RASA1 / Fold change vs veh, RASA1 / RFU, RB1 / Fold change vs veh, RB1 / RFU, PPFIA1 / Fold change vs veh, PPFIA1 / RFU, MAT2A / Fold change vs veh, MAT2A / RFU, CCT5 / Fold change vs veh, CCT5 / RFU, WDR92 / Fold change vs veh, WDR92 / RFU, CUX1 / Fold change vs veh, CUX1 / RFU, TTC7A / Fold change vs veh, TTC7A / RFU, TMEM135 / Fold change vs veh, TMEM135 / RFU, DEPTOR / Fold change vs veh, DEPTOR / RFU, CPM / Fold change vs veh, CPM / RFU, DNAJB6 / Fold change vs veh, DNAJB6 / RFU, CACNA2D3 / Fold change vs veh, CACNA2D3 / RFU, DTX4 / Fold change vs veh, DTX4 / RFU, TFCP2 / Fold change vs veh, TFCP2 / RFU, GMCL1 /// GMCL1P1 / Fold change vs veh, GMCL1 /// GMCL1P1 / RFU, AEBP2 / Fold change vs veh, AEBP2 / RFU, SNHG1 /// SNORD22 /// SNORD25 /// SNORD26 /// SNORD27 /// SNORD28 /// SNORD29 /// SNORD31 / Fold change vs veh, SNHG1 /// SNORD22 /// SNORD25 /// SNORD26 /// SNORD27 /// SNORD28 /// SNORD29 /// SNORD31 / Fold change (Aza/veh), C12orf56 (ProbeSet 11735607_a_at) / Fold change (ACY-1035/veh), C12orf56 (ProbeSet 11735607_a_at) / Fold change (Aza/veh), FGFR1OP (ProbeSet 11751329_s_at) / Fold change (ACY-1035/veh), FGFR1OP (ProbeSet 11751329_s_at) / Fold change (Aza/veh), VPS36 (ProbeSet 11739960_a_at) / Fold change (ACY-1035/veh), VPS36 (ProbeSet 11739960_a_at) / RFU SYPL1 (11715823_x_at) / Fold change /veh SYPL1 (11715823_x_at) / RFU IGFBP7 (11715501_s_at) / Fold change /veh IGFBP7 (11715501_s_at) / RFU REEP3 (11722064_at) / Fold change /veh REEP3 (11722064_at) / RFU IGLL1 (11728026_x_at) / Fold change /veh IGLL1 (11728026_x_at): dose or concentration left out as unconfirmed
Conditions: MV-4-11 cells, 48 hours

Q: How did the “RFU HAMP (11756126_x_at)” value turn out when `Nc1ccc(-c2cccs2)cc1NC(=O)c1ccc2c(c1)cc(C1CC1)n2CCN1CCOCC1` [ACY-1035] was run?
A: 352.00 RFU
